From publication PMC10600239, “Selective MCL-1 inhibitor ABBV-467 is efficacious in tumor models but is associated with cardiac troponin increases in patients” (Communications Medicine, 2023)
Where “and” joins values, the source holds several entries; their conditions need not be identical. Identical values can stand only once.

Columns and labels:
MV4-11-Red.Fluc = assay: Systemic MV4-11-Red.Fluc model (bioluminescence, total flux); type: in vivo, mouse; parameters: bioluminescence signal, individual mouse (ear tag), 10 min post: unit: p/s; details: for bioluminescence signal, group Average, 10 min post / bioluminescence signal, individual mouse (ear tag), 10 min post: MV 4-11 red.fluc, A-1726694 q7dx3 IV, ABT-199 50mkd qdx21 PO
Procedure: All animal studies were conducted in accordance with the guidelines approved by the Institutional Animal Care and Use Committees of AbbVie. The research protocol was approved by In Vivo Pharmacology at AbbVie prior to study initiation but was not publicly registered or disclosed. Female C.B-17 SCID-beige mice (AMO-1, OPM-2, NCI-H929, and OCI-AML2 xenografts) and female NSG mice (MV4-11-Red.Fluc systemic) were purchased from Charles River Laboratories (Wilmington, MA). Animals were housed in a light cycle-controlled room with HEPA filtration at 22 °C. Animals had nesting and climbing cage topper as the primary environmental enrichment. Animals were inoculated subcutaneously in the right flank with 5 × 10^6 (AMO-1, OPM-2, NCI-H929, and OCI-AML2) or intravenous (IV) with 5 × 10^6 (MV4-11-Red.Fluc). The inoculation volume (0.2 mL) comprised a 50:50 mixture of cells in growth media and Matrigel (BD Biosciences) for subcutaneous injections and 100% phosphate-buffered saline for IV administration. All cell lines used in this publication were authenticated using IDEXX for STR profiling as well as their IMPACT and human IMPACT panels for pathogen screening. Electronic calipers were used to measure the length and width of each tumor 2 to 3 times per week. Tumor volume was estimated by applying the following equation: volume = length × width^2/2. All groups remained blinded during measurements and dosing; only veterinary staff were aware of group identity. When tumors reached approximately 200 mm^3, mice were randomized by match and distributed into treatment and control groups. All xenograft trials were conducted using 5 to 10 mice per group, and all mice were ear tagged and monitored individually throughout the studies. Any animal with a tumor above 2000 mm^3 or 15% loss in body weight was euthanized and removed from the study. Tumor burden in the systemic MV4-11-Red.Fluc experiment was measured using an IVIS® spectrum from PerkinElmer by taking the total photon flux of the entire dorsal side of an individual mouse. Ten minutes prior to imaging, animals received intraperitoneally 0.2 mL of a 15-mg/mL solution of D-Luciferin (PerkinElmer, Catalog #122799) formulated in 100% phosphate-buffered saline. Animals were anesthetized using 3.5% isoflurane and maintained using 2%. Six days after inoculation, animals were imaged and randomized into vehicle and treatment groups at a total flux of ~1 × 10^8. A background control mouse that was tumor naive but received D-Luciferin was placed in the upper left corner of each image. The total flux from this animal was subtracted from the total flux of each animal present in the image. […]

OCI-AML2 xenografts = assay: OCI-AML2 xenograft efficacy (tumor volume, body weight); details: venetoclax 25 mg/kg QD × 14, azacitidine 8 mg/kg Q7D × 3, or the combination of both
Procedure: All animal studies were conducted in accordance with the guidelines approved by the Institutional Animal Care and Use Committees of AbbVie. The research protocol was approved by In Vivo Pharmacology at AbbVie prior to study initiation but was not publicly registered or disclosed. Female C.B-17 SCID-beige mice (AMO-1, OPM-2, NCI-H929, and OCI-AML2 xenografts) and female NSG mice (MV4-11-Red.Fluc systemic) were purchased from Charles River Laboratories (Wilmington, MA). Animals were housed in a light cycle-controlled room with HEPA filtration at 22 °C. Animals had nesting and climbing cage topper as the primary environmental enrichment. Animals were inoculated subcutaneously in the right flank with 5 × 10^6 (AMO-1, OPM-2, NCI-H929, and OCI-AML2) or intravenous (IV) with 5 × 10^6 (MV4-11-Red.Fluc). The inoculation volume (0.2 mL) comprised a 50:50 mixture of cells in growth media and Matrigel (BD Biosciences) for subcutaneous injections and 100% phosphate-buffered saline for IV administration. […] Electronic calipers were used to measure the length and width of each tumor 2 to 3 times per week. Tumor volume was estimated by applying the following equation: volume = length × width^2/2. All groups remained blinded during measurements and dosing; only veterinary staff were aware of group identity. When tumors reached approximately 200 mm^3, mice were randomized by match and distributed into treatment and control groups. All xenograft trials were conducted using 5 to 10 mice per group, and all mice were ear tagged and monitored individually throughout the studies.
For combination studies, all compounds were administered within 30 min of each other.
The tumor growth delay (TGD) percentage was determined as the percentage increase of the median time period for the treatment group to reach an arbitrary tumor volume of 1000 mm^3 relative to the vehicle control group. […] A power analysis was conducted using historical data to determine the number of animals required to yield significance of 0.05 at a 30% difference. There were no animals excluded. Data from experiments in vivo were analyzed using the student’s t-test for TGI values and the Mann–Whitney U test for TGD using Excel and GraphPad Prism. Fisher’s exact test was used to probe significance of differences in response frequency.

CC1(C)CCC(CN2CCN(c3ccc(C(=O)NS(=O)(=O)c4ccc(NCC5CCOCC5)c([N+](=O)[O-])c4)c(Oc4cnc5[nH]ccc5c4)c3)CC2)=C(c2ccc(Cl)cc2)C1 [venetoclax]
Total Flux minus ROI 1 (background) (MV4-11-Red.Fluc; Day55, individual ROI (one per animal), background-subtracted): 5.08E+11 p/s | Total Flux (MV4-11-Red.Fluc; Day55, individual ROI (one per animal, ROI 2-10), raw value): 5.09E+11 p/s | bioluminescence signal, group Average, 10 min post (MV4-11-Red.Fluc; day 6): 7.85E+07 | bioluminescence signal, individual mouse (ear tag), 10 min post (MV4-11-Red.Fluc; day 6): 6.21E+07 and 5.74E+07 and 4.57E+07 and 1.10E+08 and 9.71E+07 and 7.20E+07 and 8.40E+07 and 9.10E+07 | bioluminescence signal, group Average, 10 min post (MV4-11-Red.Fluc; day 10): 5.02E+08 | bioluminescence signal, individual mouse (ear tag), 10 min post (MV4-11-Red.Fluc; day 10): 3.02E+08 and 5.77E+08 and 2.27E+08 and 9.68E+08 and 7.24E+08 and 4.68E+08 and 3.50E+08 and 4.61E+08 | bioluminescence signal, group Average, 10 min post (MV4-11-Red.Fluc; day 13): 1.09E+09 | bioluminescence signal, group Average, 10 min post (MV4-11-Red.Fluc; day 17): 4.62E+09 | bioluminescence signal, individual mouse (ear tag), 10 min post (MV4-11-Red.Fluc; day 17): 3.54E+09 and 4.80E+09 and 3.65E+09 and 6.19E+09 and 6.79E+09 and 2.67E+09 and 4.40E+09 and 4.67E+09 | bioluminescence signal, group Average, 10 min post (MV4-11-Red.Fluc; day 20): 9.05E+09 | bioluminescence signal, individual mouse (ear tag), 10 min post (MV4-11-Red.Fluc; day 20): 8.51E+09 and 1.38E+10 and 5.28E+09 and 1.23E+10 and 6.88E+09 and 6.58E+09 and 8.42E+09 and 1.02E+10 | bioluminescence signal, group Average, 10 min post (MV4-11-Red.Fluc; day 24): 1.53E+10 | bioluminescence signal, individual mouse (ear tag), 10 min post (MV4-11-Red.Fluc; day 24): 9.16E+09 and 1.73E+10 and 6.56E+09 and 2.31E+10 and 2.87E+10 and 1.24E+10 and 1.46E+10 and 1.55E+10 | bioluminescence signal, group Average, 10 min post (MV4-11-Red.Fluc; day 27): 2.79E+10 | bioluminescence signal, individual mouse (ear tag), 10 min post (MV4-11-Red.Fluc; day 27): 2.48E+10 and 2.02E+10 and 1.49E+10 and 4.29E+10 and 4.73E+10 and 2.09E+10 and 3.23E+10 and 1.93E+10 | bioluminescence signal, group Average, 10 min post (MV4-11-Red.Fluc; day 31): 5.69E+10 | bioluminescence signal, group Average, 10 min post (MV4-11-Red.Fluc; day 34): 1.07E+11 | bioluminescence signal, group Average, 10 min post (MV4-11-Red.Fluc; day 38): 1.45E+11 | bioluminescence signal, group Average, 10 min post (MV4-11-Red.Fluc; day 41): 3.10E+11 | bioluminescence signal, individual mouse (ear tag), 10 min post (MV4-11-Red.Fluc; day 41): 2.65E+11 and 1.55E+11 and 4.70E+11 and 2.06E+11 and 5.84E+11 | bioluminescence signal, group Average, 10 min post (MV4-11-Red.Fluc; day 45): 6.43E+11 | bioluminescence signal, individual mouse (ear tag), 10 min post (MV4-11-Red.Fluc; day 45): 4.15E+11 | bioluminescence signal, group Average, 10 min post (MV4-11-Red.Fluc; day 48): 2.37E+11 | bioluminescence signal, individual mouse (ear tag), 10 min post (MV4-11-Red.Fluc; day 48): 4.43E+11 | bioluminescence signal, group Average, 10 min post (MV4-11-Red.Fluc; day 55): 8.71E+11 | effect on OCI-AML2 xenograft growth (OCI-AML2 xenografts): no meaningful effect
